US10435361B2, “Kinase inhibitors” (Topivert Pharma Limited, priority 2013, dated 2019)
Like-named read-outs stand apart in the source and are kept apart here.

Experiments:
d-U937 cells = test: LPS-induced TNFα/IL-8 release in d-U937 cells; format: cell-based; details: Homo sapiens, dU937, assay (aa)
Experimental: U937 cells, a human monocytic cell line, are differentiated to macrophage-type cells by incubation with phorbol myristate acetate (PMA; 100 ng/mL) for 48 to 72 hr. Cells are pre-incubated with final concentrations of test compound for 2 hr and are then stimulated with 0.1 μg/mL of LPS (from E. Coli: 0111:B4, Sigma) for 4 hr. The supernatant is collected for determination of TNFα and IL-8 concentrations by sandwich ELISA (Duo-set, R&D systems). […] The relative 50% effective concentration (REC50) is determined from the resultant concentration-response curve. The inhibition of IL-8 production is calculated at each concentration of test compound by comparison with vehicle control.

PBMCs [1] = test: LPS-induced TNFα/IL-8 release in PBMC cells; format: cell-based; details: Homo sapiens, assay (b), read-out: IC50 Values for Inhibition of Cytokine Release PBMCs IL-8
Summary of the method: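 Healthy-donor PBMCs isolated by density gradient were pretreated with compound for 2 h, then stimulated with 1 ng/mL LPS (E. coli 0111:B4) for 24 h at 37° C., 5% CO2. IL-8 and TNFα in supernatants measured by sandwich ELISA.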

PBMCs [2] = test: IL-2 and IFN gamma release in CD3/CD28 stimulated PBMC cells; format: cell-based; details: Homo sapiens, assay (c)
Summary of the method: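 Healthy-donor PBMCs, density-gradient isolated, stimulated on plates pre-coated with anti-CD3 (0.3 μg/mL) and anti-CD28 (3 μg/mL) antibodies, with compound, for 3 days under standard culture conditions. IC50 derived from the dose-response curve.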

HT29 cells = test: IL-1β-induced IL-8 release in HT29 cells; format: cell-based; details: Homo sapiens, HT-29, assay (d), read-out: IC50 Values for Inhibition of Cytokine Release HT29 cells IL-8
Experimental: HT29 cells, a human colon adenocarcinoma cell line, are plated in a 96 well plate (24 hr) and pre-treated with compounds at the desired concentration for 2 hours before addition of 5 ng/mL of IL-1β (Abcam) for 24 hours. Supernatants are harvested for IL-8 quantification by Sandwich ELISA (Duo-set, R&D System). The IC50 is determined from the dose response curve.

PBMCs [3] = test: Cell mitosis assay in PBMCs; format: cell-based; details: Homo sapiens, PBMC, 5 μg/mL
Summary of the method: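 Human PBMCs from healthy donors, density-gradient isolated, stimulated with 2% PHA 48 h, then exposed 20 h to test compounds; demecolcine 0.1 μg/mL added 2 h before harvest. Fixed/permeabilised cells stained for phospho-histone H3 and propidium iodide; mitotic lymphocytes counted by flow cytometry.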

BDF1 mice = test: TNBS-induced colitis in mice; format: in vivo; details: conducted over 2 days; vehicle corn oil/transcutol/maisine/cremophor ELP
Experimental: Non-fasted, 10-12 week old, male BDF1 mice are dosed by oral gavage twice daily with either vehicle (5 mL/kg), reference item (Budesonide 2.5 mg/kg) or test compound (1 or 5 mg/kg) one day before (Day −1) stimulation of the inflammatory response by treatment with 2,4,6-trinitrobenzenesulphonic acid (TNBS) (15 mg/mL in 50% ethanol/50% saline). On Day 0 of the study TNBS (200 μL) is administered intra-colonically via a plastic catheter with BID dosing of the vehicle, reference or test compound continuing for 2 or 4 days. During the study, animals are weighed every day and stool observations are made and recorded as a score, based on stool consistency. At the time of sacrifice on Day 2 (or Day 4), the large intestine is removed and the length and weight recorded. Sections of the colon are taken for histopathology scoring to determine disease severity.

SCID animals = test: Adoptive transfer in mice (CD45RBhigh cells into SCID animals); format: in vivo; details: end of the study
Experimental: On Study day 0, female Balb/C mice are terminated and spleens obtained for CD45RB^high cell isolation (Using SCID IBD cell Separation protocol). Approximately 4×10^5 cells/mL CD45RB^high cells are then injected intraperitoneally (100 μL/mouse) into female SCID animals. On study day 14, mice are weighed and randomized into treatment groups based on body weight. On Day 14, compounds are administered BID, via oral gavage, in a peanut oil vehicle at the dose levels outlined below in Tables 6a and 6b and a dose volume of 5 mL/kg. Treatment continues until study day 42, at which point the animals are necropsied 4 hours after the morning administration. The colon length and weight are recorded and used as a secondary endpoint in the study as a measurement of colon oedema. The colon is then divided into six cross-sections, four of which are used for histopathology scoring (primary endpoint) and two are homogenised for cytokine analysis. Data shown is the % inhibition of the induction window between naïve animals and vehicle animals, where higher inhibition implies closer to the non-diseased, naïve, phenotype.

[4] = Plasma pharmacokinetics and total colon tissue distribution in mice, single oral administration; format: in vivo, C57BL/6 mice; details: male, C57BL/6, mouse, 5 mg/kg, read-out: Median plasma concentration
Experimental: (§1) Studies were conducted by Sai Life Sciences (Hinjewadi, Pune, India) to investigate the plasma pharmacokinetics and total colon tissue distribution of compounds of the invention. In particular, pharmacokinetic studies were carried out in: • male C57BL/6 mice, following a single oral administration; and • male Wistar rats following a single intravenous or oral administration.

[5] = Plasma pharmacokinetics in rats, single intravenous or oral administration; format: in vivo; details: male, Wistar, rat; for clearance: rats, intravenous 0.25 mg/kg
Experimental: as §1

Lewis rats = test: Endotoxin-induced uveitis in rats; format: in vivo; details: rats treated with intravitreal endotoxin LPS
Experimental: Male, Lewis rats (6-8 weeks old, Charles River UK Limited) are housed in cages of 3 at 19-21° C. with a 12 h light/dark cycle (07:00/19:00) and fed a standard diet of rodent chow and water ad libitum. Non-fasted rats are weighed, individually identified on the tail with a permanent marker, and receive a single intravitreal administration into the right vitreous humor (5 μL dose volume) of 100 ng/animal of LPS (Escherichia coli 0111:B4 prepared in PBS, Sigma Aldrich, UK) using a 32-gauge needle. Untreated rats are injected with PBS. Test compound, dexamethasone (Dex) or vehicle (20% hydroxypropyl-β-cyclodextrin, 0.1% HPMC, 0.01% Benzalkonium chloride, 0.05% EDTA, 0.7% NaCl in deionised water) are administered by the topical route onto the right eye (10 μL) of animals 30 minutes prior to LPS, at the time of LPS administration, and 1, 2 and 4 hours post LPS administration. Before administration, the solution or suspension to be administered is agitated for 5 minutes to ensure a uniform suspension. 6 hours after LPS dosing, animals are euthanized by overdose with pentobarbitone (i.v.). Following euthanasia, the right eye of each animal is enucleated and dissected into front (anterior) and back (posterior) sections around the lens. Each section is weighed and homogenised in 500 μL of sterile phosphate buffered saline followed by 20 minutes centrifugation at 12000 rpm at 4° C. The resulting supernatant is divided into 3 aliquots and stored at −80° C. until subsequent cytokine analysis by R&D DuoSet ELISA.

[6] = read-out: IC50 Values for Inhibition of Cytokine Release PBMCs IFNγ
[7] = read-out: IC50 Values for Inhibition of Cytokine Release PBMCs IL-2
[8] = po, 5 mg/kg, read-out: Median plasma concentration

Structure (SMILES)	IC50 (PBMCs [1])	IC50 (PBMCs [2]; [6])	IC50 (PBMCs [2]; [7])	IC50 (HT29 cells)	inhibition at 5 µg/mL (PBMCs [3])	activity in TNBS-induced colitis (histopathology analysis) (BDF1 mice)	clearance [5]	cytokine levels in the anterior and posterior segments of the eyes (Lewis rats)	further results
COCCOCCOCCNC(=O)c1cc(Nc2cc(Oc3ccc(NC(=O)Nc4cc(C(C)(C)C)cc(NS(C)(=O)=O)c4OC)c4ccccc34)ccn2)cc(OC)c1 [Example 3, 3-((4-((4-(3-(5-(tert-Butyl)-2-methoxy-3-(methylsulfonamido)phenyl)ureido)naphthalen-1-yl)oxy)pyridin-2-yl)amino)-5-methoxy-N-(2-(2-(2-methoxyethoxy)ethoxy)ethyl)benzamide]	1.2 nM	9.6 nM	190 nM	8.1 nM	31.7%	displayed substantial activity	5.1 mL/min/kg	–	IC50 (d-U937 cells; method: relative to 10 μg/mL BIRB796 (REC50), read-out: IC50 Values for Inhibition of Cytokine Release dU937 cells TNFα): 0.4 nM; IC50 (d-U937 cells; read-out: IC50 Values for Inhibition of Cytokine Release dU937 cells IL-8): 1.3 nM; activity in adoptive transfer model (ratios of colon weight to length) (SCID animals): displayed significant activity; concentration at 1 h [4]: 0 ng/mL; concentration at 2 h [4]: 0 ng/mL; concentration at 4 h [4]: 0 ng/mL; concentration at 8 h [4]: 0 ng/mL; concentration at 12 h [4]: 0 ng/mL; concentration at 24 h [4]: 0 ng/mL; concentration at 0.5 h [5, 8]: 0 ng/mL; concentration at 1 h [5, 8]: 0 ng/mL; concentration at 2 h [5, 8]: 0 ng/mL; concentration at 4 h [5, 8]: 0 ng/mL; concentration at 6 h [5, 8]: 0 ng/mL; concentration at 8 h [5, 8]: 0 ng/mL; concentration at 12 h [5, 8]: 0 ng/mL; concentration at 24 h [5, 8]: 0 ng/mL
CNC(=O)c1cc(C(C)(C)C)cc(NC(=O)Nc2ccc(Oc3ccnc(Nc4cc(OC)cc(OCCOCCOCCOC)c4)c3)c3ccccc23)c1OC [Example 29, 5-(tert-Butyl)-2-methoxy-3-(3-(4-((2-((3-methoxy-5-(2-(2-(2-methoxyethoxy)ethoxy)-ethoxy)phenyl)amino)pyridin-4-yl)oxy)naphthalen-1-yl)ureido)-N-methylbenzamide]	2.3 nM	3.5 nM	51.2 nM	0.6 nM	34.6%	–	14.2 mL/min/kg	significantly reduced	–
COCCOCCOCCOc1cc(Nc2cc(Oc3ccc(NC(=O)Nc4cc(C(C)(C)C)cc(C(N)=O)c4OC)c4ccccc34)ccn2)cc(OC)c1 [Example 34, 5-(tert-Butyl)-2-methoxy-3-(3-(4-((2-((3-methoxy-5-(2-(2-(2-methoxyethoxy)ethoxy)ethoxy)phenyl)amino)pyridin-4-yl)oxy)naphthalen-1-yl)ureido)benzamide]	3 nM	7.6 nM	62.5 nM	2.1 nM	40.4%	displayed substantial activity	–	–	–
COc1cc(Nc2cc(Oc3ccc(NC(=O)Nc4cc(C(C)(C)C)cc(NS(C)(=O)=O)c4OC)c4ccccc34)ccn2)cc(C(=O)NCCCN2CCOCC2)c1 [Example 66, 3-((4-((4-(3-(5-(tert-Butyl)-2-methoxy-3-(methylsulfonamido)phenyl)ureido)naphthalen-1-yl)oxy)pyridin-2-yl)amino)-5-methoxy-N-(3-morpholinopropyl)benzamide]	1.9 nM	20.2 nM	49.2 nM	16.4 nM	66.6%	–	–	significantly reduced	–
COc1cc(Nc2cc(Oc3ccc(NC(=O)Nc4cc(C(C)(C)C)cc(NS(C)(=O)=O)c4OC)c4ccccc34)ccn2)cc(C(=O)NCCN2CCN(C)CC2)c1 [Example 79, 3-((4-((4-(3-(5-(tert-Butyl)-2-methoxy-3-(methylsulfonamido)phenyl)ureido)naphthalen-1-yl)oxy)pyridin-2-yl)amino)-5-methoxy-N-(2-(4-methylpiperazin-1-yl)ethyl)benzamide]	3.4 nM	5.9 nM	284 nM	13.1 nM	54.4%	displayed substantial activity	–	–	–
